The target of one test is T1, XlyB (Bacillus subtilis, UniProt O34391).
T1 construct: full coding region, N-terminal His6 tag, vector pJOE5751 (plasmid pHWG1184), E. coli JM109, HisTrap; prophage PBSX gene
The experiment in a line: thermal shift assay (SYPRO Orange). It counts as binding. The note with it: (GlcNAc)3 concentration for this protein not stated (16 mM with HEWL).

The target of the next test is T2, XlyA (Bacillus subtilis, UniProt P39800).
T2 construct: full coding region, N-terminal His6 tag, vector pJOE5751 (plasmid pHWG1185), E. coli JM109, HisTrap; prophage PBSX gene
Description: thermal shift assay (SYPRO Orange). The note with it: (GlcNAc)3 concentration for this protein not stated (16 mM with HEWL). It is filed as binding.

T1 sequence (O34391 2-317): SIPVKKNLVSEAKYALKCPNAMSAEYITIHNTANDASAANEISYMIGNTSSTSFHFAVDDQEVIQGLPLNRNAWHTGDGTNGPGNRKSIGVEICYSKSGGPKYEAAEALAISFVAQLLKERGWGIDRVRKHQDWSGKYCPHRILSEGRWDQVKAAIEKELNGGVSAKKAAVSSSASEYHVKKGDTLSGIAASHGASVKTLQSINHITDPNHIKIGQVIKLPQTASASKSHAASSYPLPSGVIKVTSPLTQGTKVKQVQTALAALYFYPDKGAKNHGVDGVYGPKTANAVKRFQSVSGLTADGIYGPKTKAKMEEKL
T2 sequence (P39800 2-297): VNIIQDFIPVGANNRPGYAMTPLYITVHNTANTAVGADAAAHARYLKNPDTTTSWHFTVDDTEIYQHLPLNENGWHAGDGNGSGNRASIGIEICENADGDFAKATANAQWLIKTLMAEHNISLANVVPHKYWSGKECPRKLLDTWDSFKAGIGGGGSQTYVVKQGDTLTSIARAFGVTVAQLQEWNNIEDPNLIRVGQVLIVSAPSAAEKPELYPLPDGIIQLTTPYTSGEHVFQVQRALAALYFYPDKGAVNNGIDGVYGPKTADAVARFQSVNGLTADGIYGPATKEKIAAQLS

For `CC(=O)N[C@H]1[C@H](O[C@H]2[C@H](O)[C@@H](NC(C)=O)C(O)O[C@@H]2CO)O[C@H](CO)[C@@H](O[C@@H]2O[C@H](CO)[C@@H](O)[C@H](O)[C@H]2NC(C)=O)[C@@H]1O` (some centres unmarked) [triacetylchitotriose], the dTm at XlyB and on XlyA was 2 °C in each case.

The record behind these values is article PMC6834076, “Crystal structures of the Bacillus subtilis prophage lytic cassette proteins XepA and YomS” (Acta Crystallographica. Section D, Structural Biology, 2019).
